Source: patent US11629171B2, “Beta-hairpin peptidomimetics” (POLYPHOR AG, priority 2017, dated 2023)
≈ marks a conversion by molar mass, not a printed value. Where a SMILES comes first, the peptide text is derived from it. Bridges are numbered along the chain shown (N, C = ends). Roman numbers before positions name the chains, in order. [ ]: non-standard residue; d: D form. Thr(ol) = C[C@@H](O)[C@H](N)CO; Tle = CC(C)(C)[C@H](N)C(=O)O; Hiv = CC(C)[C@H](O)C(=O)O; dDab = NCC[C@@H](N)C(=O)O; hSer = N[C@@H](CCO)C(=O)O; Dab = NCC[C@H](N)C(=O)O; Dap = NC[C@H](N)C(=O)O

Key:
Format in all cases: cell-based
[1] = test system: Klebsiella pneumoniae 968733; conditions: 968733
Procedure, shortened: (§1)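 CLSI broth microdilution in cation-adjusted Mueller-Hinton II broth with 0.002% polysorbate 80 (final), inoculum appr. 10^6 CFU/mL, peptides in serial two-fold dilutions. MIC (μg/mL) is the lowest concentration without visible growth after 18-20 h at 35° C.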

[2] = test system: Escherichia coli ATCC 25922; conditions: ATCC 25922
Procedure, shortened: as §1

Escherichia coli 926415 = conditions: 926415
Procedure, shortened: as §1

[3] = test system: Pseudomonas aeruginosa ATCC 27853; conditions: ATCC 27853
Procedure, shortened: as §1

[4] = test system: Acinetobacter baumannii 872842; conditions: 872842
Procedure, shortened: as §1

[5] = test system: Enterobacter cloacae 848840; conditions: 848840
Procedure, shortened: as §1

[6] = test system: Klebsiella pneumoniae SSI #3010; conditions: SSI #3010
Procedure, shortened: as §1

[7] = test system: Acinetobacter baumannii DSM 30008; conditions: DSM 30008
Procedure, shortened: as §1

[8] = test system: human red blood cells (hRBC); experiment: Hemolysis; conditions: red cells of human, 1 h, 200
Procedure, shortened: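 Read-out is supernatant absorbance at 540 nm, normalised to full lysis by 2% Triton X-100 and zero lysis by PBS with 10% water. Peptides (200 μg/mL) were exposed to 20% v/v washed human erythrocytes at 37° C for 1 h under shaking.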

| Compound | MIC [1] [µg/mL] | MIC [2] [µg/mL] | MIC (Escherichia coli 926415) [µg/mL] | MIC [3] [µg/mL] | MIC [4] [µg/mL] | MIC [5] [µg/mL] | MIC [6] [µg/mL] | MIC [7] [µg/mL] | Hemolysis at 200 μg/mL [8] [%] | Escherichia coli ATCC 25922 MIC [2] [µg/mL] | Pseudomonas aeruginosa ATCC 27853 MIC [3] [µg/mL] | Klebsiella pneumoniae SSI #3010 MIC [6] [µg/mL] | Acinetobacter baumannii DSM 30008 MIC [7] [µg/mL] |
| --- | --- | --- | --- | --- | --- | --- | --- | --- | --- | --- | --- | --- | --- |
| CC(C)C[C@@H]1NC(=O)[C@@H](CC(C)C)NC(=O)[C@H](CCN)NC(=O)[C@@H](NC(=O)[C@H](CCN)NC(=O)[C@@H](NC(=O)[C@H](CCN)NC(=O)CC[C@@H]2NC(=O)[C@H](CCN)NC(=O)[C@H](Cc3ccc(O)cc3)NC(=O)[C@@H](NC(=O)[C@@H](O)C(C)C)CSSC[C@@H](C(=O)N[C@H](CO)[C@@H](C)O)NC(=O)[C@H](C(C)(C)C)NC(=O)[C@H](CCO)NC(=O)[C@H](Cc3c[nH]c4ccccc34)NC(=O)[C@H](CCO)NC(=O)[C@@H](CCN)NC2=O)[C@@H](C)O)CCNC(=O)[C@H]([C@@H](C)O)NC(=O)[C@H](CCN)NC(=O)[C@H](CCN)NC1=O [Ex. 81] (I: H-[Hiv]CY[Dab]E[dDab][hSer]W[hSer][Tle]C[Thr(ol)] / II: [Dab]T[Dab][Dab][Dab][dL]L[Dab][Dab]T; disulfide I:2-I:11; amide I:5-II:N; lactam II:4-II:C) | 0.125 (≈ 0.0518 µM) | 0.0625 (≈ 0.0259 µM) | 0.125 (≈ 0.0518 µM) | 0.125 (≈ 0.0518 µM) | 0.25 (≈ 0.104 µM) | 0.125 (≈ 0.0518 µM) | 0.0625 (≈ 0.0259 µM) | 0.125 (≈ 0.0518 µM) | <1 | – | – | – | – |
| CC(C)C[C@@H]1NC(=O)[C@@H](CC(C)C)NC(=O)[C@H](CCN)NC(=O)[C@@H](NC(=O)[C@H](CCN)NC(=O)[C@@H](NC(=O)[C@H](CCN)NC(=O)CC[C@@H]2NC(=O)[C@H](CCN)NC(=O)[C@H](Cc3ccc(O)cc3)NC(=O)[C@@H](NC(=O)[C@@H](O)C(C)C)CSSC[C@@H](C(=O)N[C@H](CO)[C@@H](C)O)NC(=O)[C@H](C(C)(C)C)NC(=O)[C@H]([C@@H](C)O)NC(=O)[C@H](Cc3c[nH]c4ccccc34)NC(=O)[C@H](CCO)NC(=O)[C@@H](CCN)NC2=O)[C@@H](C)O)CCNC(=O)[C@H]([C@@H](C)O)NC(=O)[C@H](CCN)NC(=O)[C@H](CCN)NC1=O [Ex. 76] (I: H-[Hiv]CY[Dab]E[dDab][hSer]WT[Tle]C[Thr(ol)] / II: [Dab]T[Dab][Dab][Dab][dL]L[Dab][Dab]T; disulfide I:2-I:11; amide I:5-II:N; lactam II:4-II:C) | 0.125 (≈ 0.0518 µM) | 0.0625 (≈ 0.0259 µM) | 0.125 (≈ 0.0518 µM) | 0.25 (≈ 0.104 µM) | 0.25 (≈ 0.104 µM) | 0.125 (≈ 0.0518 µM) | 0.125 (≈ 0.0518 µM) | 0.0625 (≈ 0.0259 µM) | 1 | – | – | – | – |
| CC(=O)N[C@H](C(=O)N[C@H]1CNC(=O)CC[C@@H](C(=O)N[C@@H](CO)C(N)=O)NC(=O)[C@H](C(C)C)NC(=O)[C@H](CO)NC(=O)[C@H](Cc2c[nH]c3ccccc23)NC(=O)[C@H](CO)NC(=O)[C@@H](CCN)NC(=O)[C@H](CCC(=O)N[C@@H](CCN)C(=O)N[C@H](C(=O)N[C@@H](CN)C(=O)N[C@H]2CCNC(=O)[C@H]([C@@H](C)O)NC(=O)[C@H](CCN)NC(=O)[C@H](CCN)NC(=O)[C@H](CC(C)C)NC(=O)[C@@H](CC(C)C)NC(=O)[C@H](CCN)NC2=O)[C@@H](C)O)NC(=O)[C@H](CCN)NC(=O)[C@H](Cc2ccc(O)cc2)NC1=O)C(C)C [Ex. 320] (I: Ac-V[Dap]Y[Dab]E[dDab]SWSVES-NH2 / II: [Dab]T[Dap][Dab][Dab][dL]L[Dab][Dab]T; lactam I:2-I:11, II:4-II:C; amide I:5-II:N) | 8 (≈ 3.34 µM) | – | 4 (≈ 1.67 µM) | – | 1 (≈ 0.418 µM) | 2 (≈ 0.836 µM) | – | – | <1 | 0.0625 | 0.25 | 0.125 | 0.5 |
| CC(C)C[C@@H]1NC(=O)[C@@H](CC(C)C)NC(=O)[C@H](CCN)NC(=O)[C@@H](NC(=O)[C@H](CCN)NC(=O)[C@@H](NC(=O)[C@H](CCN)NC(=O)CC[C@@H]2NC(=O)[C@H](CCN)NC(=O)[C@H](Cc3ccc(O)cc3)NC(=O)[C@@H](NC(=O)[C@@H](O)C(C)C)CSSC[C@@H](C(=O)N[C@H](CO)[C@@H](C)O)NC(=O)[C@H](C(C)(C)C)NC(=O)[C@H](CCO)NC(=O)[C@H](Cc3c[nH]c4ccccc34)NC(=O)[C@H](CO)NC(=O)[C@@H](CCN)NC2=O)[C@@H](C)O)CCNC(=O)[C@H]([C@@H](C)O)NC(=O)[C@H](CCN)NC(=O)[C@H](CCN)NC1=O [Ex. 83] (I: H-[Hiv]CY[Dab]E[dDab]SW[hSer][Tle]C[Thr(ol)] / II: [Dab]T[Dab][Dab][Dab][dL]L[Dab][Dab]T; disulfide I:2-I:11; amide I:5-II:N; lactam II:4-II:C) | 0.25 (≈ 0.104 µM) | 0.0625 (≈ 0.026 µM) | 0.25 (≈ 0.104 µM) | 0.125 (≈ 0.0521 µM) | 0.125 (≈ 0.0521 µM) | 0.125 (≈ 0.0521 µM) | 0.0625 (≈ 0.026 µM) | 0.0625 (≈ 0.026 µM) | <1 | – | – | – | – |
| CC(=O)N[C@H](C(=O)N[C@H]1CSSC[C@@H](C(=O)NCC(=O)N[C@H](CO)C(N)=O)NC(=O)[C@H](C(C)C)NC(=O)[C@H](CO)NC(=O)[C@H](Cc2c[nH]c3ccccc23)NC(=O)[C@H](CO)NC(=O)[C@@H](CCN)NC(=O)[C@H](CCC(=O)N[C@@H](CCN)C(=O)N[C@H](C(=O)N[C@@H](CN)C(=O)N[C@H]2CCNC(=O)[C@H]([C@@H](C)O)NC(=O)[C@H](CCN)NC(=O)[C@H](CCN)NC(=O)[C@H](CC(C)C)NC(=O)[C@@H](CC(C)C)NC(=O)[C@H](CCN)NC2=O)[C@@H](C)O)NC(=O)[C@H](CCN)NC(=O)[C@H](Cc2ccc(O)cc2)NC1=O)C(C)C [Ex. 377] (I: Ac-VCY[Dab]E[dDab]SWSVCG[dS]-NH2 / II: [Dab]T[Dap][Dab][Dab][dL]L[Dab][Dab]T; disulfide I:2-I:11; amide I:5-II:N; lactam II:4-II:C) | 0.0625 (≈ 0.0254 µM) | – | 0.125 (≈ 0.0509 µM) | – | 0.0625 (≈ 0.0254 µM) | 0.0625 (≈ 0.0254 µM) | – | – | <1 | 0.01562 | 0.0625 | 0.03125 | 0.01562 |
| CC(=O)N[C@@H](CCN)C(=O)N[C@@H](CC(C)C)C(=O)N[C@H](C(=O)N[C@@H](Cc1ccc(O)cc1)C(=O)N[C@H]1CSSC[C@@H](C(=O)N[C@H](C(=O)N[C@@H](C)C(=O)N[C@H](C(N)=O)C(C)C)C(C)(C)C)NC(=O)[C@H](Cc2c[nH]c3ccccc23)NC(=O)[C@H](CCN)NC(=O)[C@@H](CCN)NC(=O)[C@H](CCC(=O)N[C@@H](CCN)C(=O)N[C@H](C(=O)N[C@@H](CN)C(=O)N[C@H]2CCNC(=O)[C@H]([C@@H](C)O)NC(=O)[C@H](CCN)NC(=O)[C@H](CCN)NC(=O)[C@H](CC(C)C)NC(=O)[C@@H](CC(C)C)NC(=O)[C@H](CCN)NC2=O)[C@@H](C)O)NC1=O)[C@@H](C)O [Ex. 239] (I: Ac-[Dab]LTYCE[dDab][Dab]WC[Tle]AV-NH2 / II: [Dab]T[Dap][Dab][Dab][dL]L[Dab][Dab]T; disulfide I:5-I:10; amide I:6-II:N; lactam II:4-II:C) | 0.25 (≈ 0.0985 µM) | 0.125 (≈ 0.0493 µM) | 0.0625 (≈ 0.0246 µM) | 0.25 (≈ 0.0985 µM) | 0.125 (≈ 0.0493 µM) | 0.25 (≈ 0.0985 µM) | 0.125 (≈ 0.0493 µM) | 0.0625 (≈ 0.0246 µM) | 1 | – | – | – | – |
| CC(=O)N[C@H](C(=O)N[C@H]1CSSC[C@@H](C(=O)N[C@@H](CO)C(N)=O)NC(=O)[C@H](C(C)C)NC(=O)[C@H](CC(=O)O)NC(=O)[C@H](Cc2c[nH]c3ccccc23)NC(=O)[C@H](CO)NC(=O)[C@@H](CCN)NC(=O)[C@H](CCC(=O)N[C@@H](CCN)C(=O)N[C@H](C(=O)N[C@@H](CN)C(=O)N[C@H]2CCNC(=O)[C@H]([C@@H](C)O)NC(=O)[C@H](CCN)NC(=O)[C@H](CCN)NC(=O)[C@H](CC(C)C)NC(=O)[C@@H](CC(C)C)NC(=O)[C@H](CCN)NC2=O)[C@@H](C)O)NC(=O)[C@H](CCCCN)NC(=O)[C@H](Cc2ccc(O)cc2)NC1=O)C(C)C [Ex. 152] (I: Ac-VCYKE[dDab]SWDVCS-NH2 / II: [Dab]T[Dap][Dab][Dab][dL]L[Dab][Dab]T; disulfide I:2-I:11; amide I:5-II:N; lactam II:4-II:C) | 8 (≈ 3.26 µM) | 0.125 (≈ 0.0509 µM) | 2 (≈ 0.815 µM) | 0.25 (≈ 0.102 µM) | 1 (≈ 0.407 µM) | 0.5 (≈ 0.204 µM) | 0.25 (≈ 0.102 µM) | 0.125 (≈ 0.0509 µM) | <1 | – | – | – | – |
